This experiment concerns wild-type (WT) mice (C57BL/6J). The experiment can be described thus: Closed-chest ischemia (90 minutes) reperfusion (I/R) injury. In kind it is in vivo, mouse. As for the experimental part: Ischemia Reperfusion (I/R) Injury. Hearts from wild-type (WT) mice (C57BL/6J; purchased from Jackson Laboratory) were subjected to ischemia reperfusion (I/R) injury, using the closed-chest ischemia reperfusion model developed by Entman and colleagues (34), and modified as we have described previously (15). For the studies described herein we used 9-10 week old mice that were instrumented, then at 1 week post instrumentation were anesthetized with 1.5% isoflurane, and subjected to 90 minutes of closed-chest ischemia, followed by reperfusion for 2 weeks.
In order to administer Pirfenidone, mice were fed powdered chow mixed with Pirfenidone (eNovation Chemicals, Bridgewater, NJ, USA, Cat #D404655) at 0.5% in weight or powdered chow alone. […] Unless specifically noted, mice were switched to a diet enriched with Pirfenidone 3 days prior to DT-induced injury or I/R-injury, and maintained on this diet throughout the duration of the experiments. In parallel studies, we fed mice normal chow prior to I/R injury and then administered Pirfenidone acutely at the time of cardiac injury. For these latter studies, mice were injected i.p. with diluent (200 μL phosphate-buffered solution [PBS]) or i.p. with Pirfenidone (200 μL of Pirfenidone [5 mg/mL] in PBS) after reperfusion and the morning after I/R injury (2 injections total). They were switched to Pirfenidone-enriched diet or control diet the evening of I/R injury and maintained on the same diet until completion of the experiment.
Rosa26-DT Mlc2v-Cre and littermate control WT mice were euthanized 14 days after DT injection, and the hearts were removed and weighed to determine the heart-weight-to-tibia-length-ratio. WT mice were euthanized 14 days after I/R injury and the hearts were removed and weighed to determine the heart-weight-to-tibia-length-ratio. Hearts were processed, paraffin-embedded, and stained with hematoxylin/eosin and Masson's trichrome, as described (38). TUNEL staining was performed with the Millipore (Burlington, MA, USA) S7200 ApopTag Peroxidase In Situ Oligo Ligation Apoptosis Detection Kit according to the manufacturer's instruction.
Image acquisition. Ultrasound examination of the cardiovascular system was performed using a Vevo 2100 Ultrasound System (VisualSonics Inc, Toronto, Ontario, Canada) equipped with a 30 MHz linear-array transducer, as previously described (15).
Imaging Protocol. Mice were imaged by echocardiography at the time of ischemia and 2 weeks after reperfusion to evaluate LV structure and function, as described (39). The echocardiographer was blinded to study group assignment. Animals with poor acoustic windows or small areas at risk (<0.45) at the time of ischemia were excluded from further analysis.
For flow cytometry experiments, mice were euthanized in a CO2 chamber and the hearts were perfused with cold PBS, carefully dissected from extracardiac tissue under a stereo microscope, finely minced, suspended in 3 ml of DMEM, and then digested with 120 U of DNAse (Sigma), 180 U of hyaluronidase (Sigma) and 1350 U of Collagenase (Sigma) for 60 minutes at 37Co. The digested material was filtered through 40 μm filters and pelleted by centrifugation (250×g for 3 minutes at 4° C.) in HBSS supplemented with 2% FCS+0.2% bovine serum albumin (BSA). Red blood cells were lysed in ACK lysis buffer (Invitrogen) for 15′ on ice and the remaining cells were resuspended in 300 μL of FACS buffer (PBS with 2% FCS and 2 mM EDTA). Cultured cells were collected for FACS analysis as described above and resuspended in 300 μL of FACS buffer. Samples were labeled with the fluorescently conjugated antibodies outlined in the table below. Cells were stained for 45 minutes on ice, and washed in FACS buffer prior to analysis. All antibodies from Biolegend were used at 0.2 μL per 300 μL sample, while antibodies from BD biosciences were used at 0.4 μL per 300 μL sample. FACS was performed on Beckton Dickinson analyzers (LSRII, Canto, X20 or Fortessa). […]

Where [1] appears, read: Pirfenidone chow from 3 days prior to I/R, 2 weeks post I/R, vs control.
Where [2] appears, read: day 4 post I/R, Pirfenidone vs control.

Take `Cc1ccc(=O)n(-c2ccccc2)c1` [Pirfenidone, 5 methyl-1-phenyl-2-[H] pyridone]: the LVEF result (B-cell depleted (anti-CD20) + Pirfenidone vs B-cell depleted mice, 2 weeks after I/R, p=0.15) was “no significant difference”. The LV mass result (B-cell depleted (anti-CD20) + Pirfenidone vs B-cell depleted mice, 2 weeks after I/R, p=0.21) is reported as “no significant difference”. Besides, the LV end-diastolic volume result (B-cell depleted (anti-CD20) + Pirfenidone vs B-cell depleted mice, 2 weeks after I/R, p=0.40) is recorded as “no significant difference”. Besides, under “B-cell depleted (anti-CD20) + Pirfenidone vs B-cell depleted mice, 2 weeks after I/R, p=0.43”, the “percentage of trichrome positive myocardium” value is “no significant difference”. In addition, the heart-weight-to-tibia length ratio entry (B-cell depleted (anti-CD20) + Pirfenidone vs B-cell depleted mice, 2 weeks after I/R, p=0.75) was “no significant difference”. The “area at risk (segmental wall motion score index, SWMSI)” value (Pirfenidone chow from 3 days prior to I/R vs control, p=0.68) is on record as “no difference”. Besides, under setting [1], the LV end-diastolic volumes entry was “significant (p=0.02) decrease”, the LVEF result is given as “trend (p=0.08) towards improvement” and the heart-weight-to-tibia length ratio result is “significant decrease”. Further, the “LV mass measured by 2-D echocardiography” value (Pirfenidone chow from 3 days prior to I/R, 2 weeks post I/R, vs control, p=0.03) is recorded as “significant decrease”. In addition, the “percentage of myocardium exhibiting collagen staining with Masson's trichrome” value (Pirfenidone chow from 3 days prior to I/R, at 2 weeks, vs normal chow, p=0.4) is “no significant difference”. Further, the heart-weight/tibia length ratio result (acute administration of Pirfenidone after reperfusion then chow 14 days, vs diluent, p=0.015) is “significantly (p=0.015) reduced”. Also, the area at risk entry (acute administration of Pirfenidone after reperfusion, vs diluent, p=0.47) is reported as “not different”. Further, under setting [2], the “CD19+ lymphocytes” value was “significant (p<0.001) reduction” and the “subset of CD19+CD11b− B lymphocytes” value is reported as “significant (p<0.001) reduction”. For the same compound, under “following I/R injury, day 4”, the “number of myocardial CD19+ CD86high” value is reported as “significant (p<0.03) decrease”.

The values are drawn from patent US12365651B2, “Use of pirfenidone and derivatives for modulation of B lymphocyte activity and organ protection from acute tissue damage” (Washington University, priority 2017, dated 2025).
